In patent US20060223857A1, “Combination of a serotonin reuptake inhibitor and a glycine transporter type 1 inhibitor for the treatment of depression” (priority 2003, published 2006):

Tested on: serotonin levels in rat ventral hippocampus
Assay: Microdialysis of serotonin levels in ventral hippocampus
Assay type: in vivo
Experimental: Male albino rats of a Wistar-derived strain (285-320 g; Harlan, Zeist, The Netherlands) were used for the experiments. Upon surgery, rats were housed individually in plastic cages (35×35×40 cm), and had free access to food and water. Animals were kept on a 12 h light schedule (light on 7:00 a.m.). The experiments are concordant with the declarations of Helsinki and were approved by the animal care committee of the faculty of mathematics and natural science of the University of Groningen.
The following drugs were used: Citalopram hydrobromide and NFPS having the structure: [drawing 3] (LU 2736N) (Lundbeck A/S, Copenhagen, Denmark). Drugs were dissolved in saline and administered s.c. Surgery […]
Twenty-μl microdialysate samples were injected via an autoinjector (CMA/200 refrigerated microsampler, CMA, Sweden) onto a 100×2.0 mm C18 Hypersil 3 μm column (Bester, Amstelveen, the Netherlands) and separated with a mobile phase consisting of 5 g/L di-ammoniumsulfate, 500 mg/L EDTA, 50 mg/L heptane sulphonic acid, 4% methanol v/v, and 30 μl/L of triethylamine, pH 4.65 at a flow of 0.4 ml/min (Shimadzu LC-10 AD). 5-HT was detected amperometrically at a glassy carbon electrode at 500 mV vs Ag/AgCl (Antec Leyden, Leiden, The Netherlands). […]

## CN(CCC(Oc1ccc(-c2ccccc2)cc1)c1ccc(F)cc1)CC(=O)O (centres unmarked) [NFPS]
NFPS 10 μmol/kg s.c. co-administered with citalopram 10 μmol/kg s.c., Treatment P=0.044, Treatment vs. Time P=0.033
  augmentation of the effect of citalopram on hippocampal serotonin levels: significantly augmented the effect of citalopram
NFPS alone, 10 μmol/kg s.c., microdialysis, Wistar rats
  effect on serotonin levels in rat ventral hippocampus: did not induce any significant effects
